These results are taken from patent US5177112A, “Substituted 2-aminotetralins” (Whitby Research, Inc., priority 1991, dated 1993).

Like-named read-outs stand apart in the source and are kept apart here.

For one assay, the target named is T1, D2 receptors (Bos taurus, UniProt P20288).
T1 construct: The caudate nuclei were dissected out and homogenized in Buffer A; from tissue; host or cells: bovine caudate nuclei membranes (brains from a local slaughterhouse)
The assay can be described thus: D2 receptor specific binding, [3H]-Spiperone. On the set-up: species or system bovine. The following applies: for Ki: bovine caudate nuclei, [3H]-Spiperone, 30 nM ketanserin, 75 minutes at room temperature; for increase in selectivity for D2 receptors: compared to the thienyl compound. As for the experimental part:
(§1) Dopamine receptor assays: Specific binding studies to test the affinity of the compounds for D1, D2 and α2 receptors were conducted using bovine caudate nuclei prepared as follows:
(§2) Bovine brains were obtained fresh from a local slaughterhouse. The caudate nuclei were dissected out and homogenized in Buffer A (50 mM Tris; 1 mM Na2 -EDTA; 5 mM KCl; 1 mM MgCl2; 2 mM CaCl2; pH 7.4) using a Brinkman Polytron. The homogenate was centrifuged at 40,000×g for 20 minutes and washed once. The pellett was resuspended in Buffer A, incubated at 37° C. for 15 minutes, then centrifuged. The pellet was washed once more, resuspended to a protein concentration of 5-10 mg/ml in Buffer A and frozen at -70° C. until used.
(§3) The following tritiated drugs were used as radioligands in the binding studies:
[^3 H]-Spiperone 21-24 Ci/mmol for D2 receptors
(§4) [^3 H]-spiperone, [^3 H]-SCH22390, and [^3 H]-ketanserin were obtained from New England Nuclear, Boston, Me.
(§5) The radioligands were incubated with various concentrations of competing drug and the appropriate membrane source for 75 minutes at room temperature for D2 receptors, 15 minutes at 37° C. for D1 receptors, or 30 minutes at room temperature for α2 receptors. Specific binding was defined using 1 μM butaclamol (D2), 1 μM SCH23390 (D1), or 1 μM yohimbine (α2). In addition the D2 assays contained 30 nM ketaserin in order to block the binding of ^3 H-spiperone to 5HT2 receptors. The assays were terminated by filtration using a 24-port Brandell cell harvester over filters that had been previously soaked in 0.1% polyethyleneimine, and the filters were washed three times by filtration of cold buffer. […] The results are presented as Ki values if the data were best fitted to a one-site model, or as KH and KL values if a two-site model produced the better fit.

A further assay deals with T2, D1 receptors (Bos taurus, UniProt Q95136).
T2 construct: The caudate nuclei were dissected out and homogenized in Buffer A; from tissue; host or cells: bovine caudate nuclei membranes (brains from a local slaughterhouse)
T2 sequence (Q95136 whole entry): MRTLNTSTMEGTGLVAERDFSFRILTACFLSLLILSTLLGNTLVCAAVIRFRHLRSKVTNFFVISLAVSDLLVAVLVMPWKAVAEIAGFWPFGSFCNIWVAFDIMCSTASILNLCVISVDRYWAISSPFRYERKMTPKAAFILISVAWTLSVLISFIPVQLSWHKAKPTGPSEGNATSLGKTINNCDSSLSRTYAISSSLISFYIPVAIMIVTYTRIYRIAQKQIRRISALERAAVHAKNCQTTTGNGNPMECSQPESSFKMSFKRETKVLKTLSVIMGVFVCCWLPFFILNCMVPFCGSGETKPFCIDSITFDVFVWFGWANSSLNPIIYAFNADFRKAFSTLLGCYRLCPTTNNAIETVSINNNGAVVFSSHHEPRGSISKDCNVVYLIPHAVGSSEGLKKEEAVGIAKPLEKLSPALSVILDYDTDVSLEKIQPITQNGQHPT
In words: D1 receptor specific binding, [3H]-SCH23390. The arrangement: species or system bovine. The procedure:
as §1, §2, §3, §4, §5

In the next assay the target is T3, α2-adrenergic receptors (Rattus norvegicus, UniProt P22909).
T3 construct: from tissue; host or cells: cerebral cortex membranes of male Sprague Dawley rats
T3 sequence (P22909 1-465): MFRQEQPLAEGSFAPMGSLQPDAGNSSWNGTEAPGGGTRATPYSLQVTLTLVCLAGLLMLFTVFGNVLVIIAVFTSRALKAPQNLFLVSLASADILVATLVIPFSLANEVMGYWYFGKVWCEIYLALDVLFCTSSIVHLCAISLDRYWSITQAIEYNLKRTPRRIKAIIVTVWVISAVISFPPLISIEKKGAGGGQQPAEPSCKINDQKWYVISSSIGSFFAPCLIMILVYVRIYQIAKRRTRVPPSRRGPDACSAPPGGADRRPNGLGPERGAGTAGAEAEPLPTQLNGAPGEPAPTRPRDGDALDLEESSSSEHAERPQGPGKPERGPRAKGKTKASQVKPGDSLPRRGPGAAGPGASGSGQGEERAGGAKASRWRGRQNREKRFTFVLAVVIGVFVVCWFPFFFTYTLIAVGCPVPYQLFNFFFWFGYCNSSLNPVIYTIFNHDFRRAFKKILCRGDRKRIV
The assay can be described thus: α2-adrenergic receptor specific binding, [3H]-Para aminoclonidine. The procedure: as §1
α2-adrenergic receptors assays were conducted using the rat cerebral cortex prepared as follows:
Male Sprague Dawley rats were killed by decapitation and the brains removed. The cerebral cortices were homogenized in 50 mM Tris; 2 mM MgCl2 (pH 7.4), and centrifuged at 40,000×g for 10 minutes. The pellet was washed once, resuspended in Tris/MgCl2 and incubated with 8 units/ml adenosine deaminase at 37° C. for 30 minutes. The homogenate was centrifuged, washed once, resuspended to a protein concentration of 5-10 mg/ml and frozen at -70° C. until use.
as §3
[^3 H]-Para aminoclonidine 48-52 Ci/mmol for α2 -adrenergic receptors.
[^3 H]-paraaminoclonidine was obtained from Amersham, Arlington Heights, Ill. Yohimbine was obtained from Sigma Chemical Co., St. Louis, Mo.
as §5

The target in assay [1] is T4, D-2 dopamine receptor (Bos taurus, UniProt P20288). In words: displacement of specific D-2 dopamine receptor binding of tritiated racemic 2-(N-propyl-N-2-thienylethylamino)-5-hydroxytetralin. On the set-up: homogenates of calf brain corpus striatum; from tissue; host or cells: calf brain corpus striatum homogenate; species or system calf. The procedure:
The pharmacological activity of the product of Example 2 was determined by examining its ability to displace the specific D-2 dopamine receptor binding of a tritium-containing racemic mixture of 2-(N-propyl-N-2-thienylethylamino)-5-hydroxytetralin to homogenates of calf brain corpus striatum.

In another assay the target is T5, D-1 dopamine receptor (Bos taurus, UniProt Q95136).
T5 construct: membranes isolated from the striatum of bovine brain; from tissue; host or cells: bovine brain striatum membranes
T5 sequence (Q95136 whole entry): as the sequence (Q95136 whole entry) above
In words: displacement of tritium labeled SCH 23390 at the D-1 dopamine receptor, striatum membranes. It counts as binding. Particulars: bovine brain striatum membranes. As for the experimental part:
The activity at the D-1 dopamine receptor was tested by the method described in Raisman et al. Eur. J. Pharmacol 113: (1985), pp. 467-468, which utilizeds membranes isolated from the striatum of bovine brain. […] Thus, the 1C50 value for the compound of Example 2 is >100,000 at the D-1 receptor.

The next assay concerns ocular function. Particulars: in vivo; cited from earlier work.
Assay [2] has as its target T4, D-2 dopamine receptor. The following applies: stated for contrast, no test data given; cited from earlier work.
For assay [3], the system named is intraocular pressure. Particulars: rabbits; cited from earlier work.
Assay [4] concerns intraocular pressure. Particulars: man; eyedrops; cited from earlier work.
In assay [5] the test system is intraocular pressure. The following applies: monkeys; cited from earlier work.
The mark [6] stands for this setting: bovine caudate nuclei, [3H]-SCH23390, 15 minutes at 37° C., read-out: Ki D1.
Where [7] appears, read: rat cerebral cortex, [3H]-Para aminoclonidine, 30 minutes at room temperature, read-out: Ki α2.

T1 sequence (P20288 whole entry): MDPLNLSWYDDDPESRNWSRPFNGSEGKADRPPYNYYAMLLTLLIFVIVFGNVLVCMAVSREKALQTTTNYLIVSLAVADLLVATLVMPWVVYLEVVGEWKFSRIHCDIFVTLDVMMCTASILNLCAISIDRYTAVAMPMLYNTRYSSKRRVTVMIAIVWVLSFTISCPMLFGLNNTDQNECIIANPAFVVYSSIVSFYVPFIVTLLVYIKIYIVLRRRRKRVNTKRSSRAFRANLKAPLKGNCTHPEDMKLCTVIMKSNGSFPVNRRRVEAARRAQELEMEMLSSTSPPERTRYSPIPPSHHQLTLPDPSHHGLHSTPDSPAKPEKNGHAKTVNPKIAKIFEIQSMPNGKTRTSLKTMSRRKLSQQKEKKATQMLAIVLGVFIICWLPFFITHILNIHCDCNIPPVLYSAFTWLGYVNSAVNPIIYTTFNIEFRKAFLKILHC
T4 sequence (P20288 whole entry): as above

The Ki is a measure of affinity in units of concentration, obtained from inhibition or displacement. With `CCCN(CCc1cccs1)C1CCc2c(O)cccc2C1` (centres unmarked), the Ki at D2 receptors amounted to 110 nM; on D1 receptors, 1000 nM; at α2-adrenergic receptors it was 190 nM.
For the compound `CCCN(CCc1csc2ccccc12)C1CCc2c(O)cccc2C1` (centres unmarked), the inhibition constant Ki on D2 receptors turned out to be 130 nM; at D1 receptors (setting [6]), 1950 nM; at α2-adrenergic receptors (setting [7]) it was 250 nM. Further, the “increase in selectivity for D2 receptors” value at D2 receptors is “two-fold”.
On to `CCCN(CCc1ccc2ccccc2c1)C1CCc2c(O)cccc2C1` (centres unmarked), for which the inhibition constant (Ki) is 80 nM on D2 receptors, 6460 nM at D1 receptors (setting [6]) and 2500 nM on α2-adrenergic receptors (setting [7]). The “increase in selectivity for D2 receptors” value at D2 receptors is “six and a half-fold”.
For orientation: Kd means a measure of binding affinity in units of concentration. Compound `CCCN(CCc1cccs1)C1CCc2c(O)cccc2C1` (racemic) [2-(N-propyl-N-2-thienylethylamino)-5-hydroxytetralin] showed a dissociation constant Kd at D-2 dopamine receptor [1] of 1.6 nM. At D-2 dopamine receptor [1] (tritium-containing racemic mixture, calf brain corpus striatum homogenates), the bmax was 26.0 picomoles/gm.
For the compound `CCCN(CCc1cc2ccccc2s1)C1CCc2c(O)cccc2C1` (centres unmarked) [Example 2, 2-(N-n-propyl-N-2-[2-benzothienyl]ethylamino)-5-hydroxytetralin], the IC50 on D-2 dopamine receptor [1] (D-2, calf brain corpus striatum homogenates, read-out: IC50 (concentration of drug required to inhibit the binding of labelled drug by 50 percent)) was 0.56 nM; on D-1 dopamine receptor (D-1, tritium labeled SCH 23390, read-out: 1C50 value at the D-1 receptor), over 100000 nM. The “D-2 as opposed to D-1 binding selectivity” value at D-2 dopamine receptor [1] (comparison of D-2 and D-1 binding) is “extremely selective D-2 as opposed to D-1 binding”. In addition, the “displacement of tritium labeled SCH 23390” value at D-1 dopamine receptor (concentration range 10^-11 to 10^-4 moles) is reported as “did not displace”.
`CCCN(CCC)CCc1ccc(O)c(O)c1` [N,N-di-n-propyldopamine]: the “alteration of ocular function” value in the assay with ocular function was “may alter ocular function”.
Regarding `CN(C)CCc1ccc(O)c(O)c1` [N,N-dimethyl-dopamine], the “alteration of ocular function” value in the assay on ocular function is “may alter ocular function”.
Regarding `CNCCc1ccc(O)c(O)c1` [N-methyldopamine], in the assay on ocular function, the “alteration of ocular function” value is listed as “may alter ocular function” and the “mechanism: aqueous humor formation” value is listed as “suppressing aqueous humor formation”.
As for `CN1CCc2cccc3c2[C@H]1Cc1ccc(O)c(O)c1-3` [apomophine], the “binding at the D-1 and D-2 receptor (comparison substances)” value on D-2 dopamine receptor [2] was “substantially equivalent binding at the D-1 and D-2 receptor”.
With `CC(C)C[C@H]1C(=O)N2CCC[C@H]2[C@]2(O)O[C@](NC(=O)[C@@H]3C=C4c5cccc6[nH]c(Br)c(c56)C[C@H]4N(C)C3)(C(C)C)C(=O)N12` [bromocriptine], the intraocular pressure result with intraocular pressure [3] is “lower the intraocular pressure of rabbits”; in the assay with intraocular pressure [4], “may lower intraocular pressure”.
On to `NCCc1ccc(O)c(O)c1` [dopamine], for which the “binding at the D-1 and D-2 receptor (comparison substances)” value on D-2 dopamine receptor [2] is “substantially equivalent binding at the D-1 and D-2 receptor”.
With `CN1C[C@H](CC#N)C[C@@H]2c3cccc4[nH]c(Cl)c(c34)C[C@H]21` [lergotrile], the intraocular pressure result in the assay with intraocular pressure [3] is reported as “lower the intraocular pressure of rabbits”; in the assay on intraocular pressure [5], “lowered the intraocular pressure of monkeys”.
`CCCN1C[C@H](CSC)C[C@@H]2c3cccc4[nH]cc(c34)C[C@H]21` [pergolide]: the figures for the intraocular pressure entry with intraocular pressure [3] and with intraocular pressure [5] were “lower the intraocular pressure of rabbits” and “lowered the intraocular pressure of monkeys”, respectively.
